According to publication PMC12426935, “On-Cell Saturation Transfer Difference NMR Spectroscopy on Ion Channels: Characterizing Negative Allosteric Modulator Binding Interactions of P2X7” (Journal of the American Chemical Society, 2025):
Numbering of substitutions follows the chain as printed. Where two headings read alike, the source gives them in different places.

What was measured:
F88A hP2X7 = molecular target: T1, F88A hP2X7 (Homo sapiens, UniProt Q99572, F88A); assay: fura-2 intracellular calcium assay on HEK-293 stable cell line expressing NAM-site mutant F88A hP2X7; format: cell-based; details: for IC50: n = 3
T1 sequence (Q99572 1-595 F88A): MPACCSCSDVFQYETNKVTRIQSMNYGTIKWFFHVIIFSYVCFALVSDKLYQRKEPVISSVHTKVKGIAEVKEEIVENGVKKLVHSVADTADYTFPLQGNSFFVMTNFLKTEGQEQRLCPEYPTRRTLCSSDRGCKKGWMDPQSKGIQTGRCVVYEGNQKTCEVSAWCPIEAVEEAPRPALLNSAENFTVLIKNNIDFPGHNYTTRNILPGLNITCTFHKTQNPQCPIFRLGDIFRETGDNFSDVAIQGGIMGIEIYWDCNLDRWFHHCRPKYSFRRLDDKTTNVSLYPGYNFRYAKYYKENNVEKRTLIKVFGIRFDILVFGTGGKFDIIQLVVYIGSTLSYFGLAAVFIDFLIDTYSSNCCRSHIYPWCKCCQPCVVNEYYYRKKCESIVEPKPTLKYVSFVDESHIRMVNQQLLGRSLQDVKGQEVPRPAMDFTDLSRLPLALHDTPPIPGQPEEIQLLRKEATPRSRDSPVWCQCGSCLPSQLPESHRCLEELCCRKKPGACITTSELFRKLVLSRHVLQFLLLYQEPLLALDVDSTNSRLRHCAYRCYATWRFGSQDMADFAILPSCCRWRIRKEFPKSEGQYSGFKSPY
Method: (§1) Transfection was performed using lipofectamine 2000 (Fisher Scientific), and cells were subjected to Geneticin (800 μg/mL) selection for 2–3 weeks. This was followed by single cell cloning by limiting dilution in 96-well plates. Individual clones were selected for further study based on ATP-induced TO-PRO-3 uptake on a BD Cytoflex flow cytometer. Cell lines were maintained in DMEM:F12 media supplemented with 10% fetal bovine serum (PanBiotech), penicillin and streptomycin (Fisher Scientific) and kept in a humidified incubator with 5% CO2. Stable P2X7-expressing cells were kept under Geneticin selection at a concentration of 400 μg/mL. Passaging was performed twice weekly using 0.25% Trypsin-EDTA (Fisher Scientific).
(§2) P2X7 responses were measured by monitoring intracellular calcium responses using fura-2AM loaded cells. Cells were plated at 2–2.5 × 10^4 cells/well the day before experiments in 96-well plates (NUNC) coated with 50 μg/mL poly-D-lysine (Merck Millipore). A loading buffer containing 2 μM fura-2AM (HelloBio) and 250 μM sulfinpyrazone (Merck Millipore) in a low divalent buffer (145 mM NaCl, 5 mM KCl, 0.2 mM CaCl2, 10 mM HEPES, 13 mM glucose, pH 7.3) was added to cells for 45 min at 37 °C. After loading, the buffer was removed and replaced with calcium-containing extracellular solution (145 mM NaCl, 5 mM KCl, 2 mM CaCl2, 10 mM HEPES, 13 mM glucose, pH 7.3). Responses were measured using a Flexstation 3 plate reader (Molecular Devices) with dual excitation wavelengths of 340 and 380 nm and single emission wavelength of 510 nm. The sample interval was 3.5 s, and each well was recorded for 180 s. Fura-2 ratios were calculated in Softmax Pro v5.4; zero baseline was applied, and responses were measured as normalized area under the curve (AUC). Dose inhibition curves were plotted using GraphPad Prism v6 nonlinear regression (three parameter fit) and log IC50 values reported.

human P2X7 (WT hP2X7) = molecular target: T2, human P2X7 (WT hP2X7) (Homo sapiens, UniProt Q99572); assay: fura-2 intracellular calcium assay on HEK-293 stable cell line expressing human P2X7; format: cell-based
T2 sequence (Q99572 1-595): T1 sequence (Q99572 1-595 F88A) with A88F
Method: as §1
as §2, with “A loading buffer containing 2 μM fura-2AM (HelloBio) and 250 μM sulfinpyrazone (Merck Millipore) in a low divalent buffer (145 mM NaCl, 5 mM KCl, 0.2 mM CaCl2, 10 mM HEPES, 13 mM glucose, pH 7.3) was added to cells for 45 min at 37 °C. After loading, the buffer was removed and replaced with calcium-containing extracellular solution (145 mM NaCl, 5 mM KCl, 2 mM CaCl2, 10 mM HEPES, 13 mM glucose, pH 7.3).” left out

Q: `O=C(NCC1(N2CCN(c3ccccc3)CC2)CCOCC1)c1cccnc1Sc1ccccc1` [JNJ-47965567] was tested. Which IC50 (F88A hP2X7; F88A hP2X7, agonist ATP, log IC50 ± standard error, read-out: Log IC50 (converted)) did it give?
A: 121 nM

Q: What about the IC50 (F88A hP2X7; F88A hP2X7, agonist ATP, mean in brackets, read-out: mean IC50) of the same compound?
A: 125 nM

Q: What about the IC50 (F88A hP2X7; F88A hP2X7, agonist BzATP, mean in brackets, read-out: mean IC50) of the same compound?
A: 53.8 nM

Q: What about the “increase in IC50 at F88A relative to hP2X7” value (F88A hP2X7; F88A hP2X7 vs hP2X7) of the same compound?
A: 10 fold

Q: And the IC50 (human P2X7 (WT hP2X7))?
A: 26 nM

Q: And the IC50 (human P2X7 (WT hP2X7); Human P2X7, species comparison (Table 1), log IC50 ± standard error, n = 3, read-out: Log IC50 (converted))?
A: 9.12 nM

Q: What about the IC50 (human P2X7 (WT hP2X7); Human P2X7, species comparison (Table 1), mean in brackets, n = 3, read-out: mean IC50) of the same compound?
A: 9 nM

Q: What about the IC50 (human P2X7 (WT hP2X7); WT hP2X7, agonist ATP (Table 2), log IC50 ± standard error, n = 3, read-out: Log IC50 (converted)) of the same compound?
A: 11.9 nM

Q: What about the IC50 (human P2X7 (WT hP2X7); WT hP2X7, agonist ATP (Table 2), mean in brackets, n = 3, read-out: mean IC50) of the same compound?
A: 11.7 nM
